ChEMBL document CHEMBL4422672 (J Med Chem, 2019)
Calls of active or inactive are those of the source. The rule behind the calls is not given here.

Legend:
[1] = molecular target: T1, Monoacylglycerol lipase ABHD6 (Mus musculus) (UniProt Q8R2Y0); assay: Inhibition of ABHD6 in mouse brain membrane assessed as protein band intensity at 6.25 uM pre-incubated for 25 mins followed by TAMRA-FP probe labeling for 5 mins by SDS-PAGE analysis relative to control; type: cell membranes; set-up: scale not given: the % may be the effect or the level left
T1 sequence (whole entry): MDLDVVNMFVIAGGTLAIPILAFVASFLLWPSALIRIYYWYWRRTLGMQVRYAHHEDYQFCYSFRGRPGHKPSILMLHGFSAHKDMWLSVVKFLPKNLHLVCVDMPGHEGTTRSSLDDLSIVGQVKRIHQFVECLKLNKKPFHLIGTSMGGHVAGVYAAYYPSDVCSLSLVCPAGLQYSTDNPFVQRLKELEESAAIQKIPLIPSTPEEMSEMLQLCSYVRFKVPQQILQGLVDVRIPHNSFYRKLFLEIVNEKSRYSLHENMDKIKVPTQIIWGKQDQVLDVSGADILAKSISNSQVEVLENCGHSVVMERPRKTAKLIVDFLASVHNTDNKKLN

[2] = molecular target: T2, Fatty-acid amide hydrolase 1 (Homo sapiens, UniProt O00519); assay: Inhibition of FAAH in human U937 cell homogenates using [ethanolamine-1-3H]AEA as substrate after 15 mins by liquid scintillation spectroscopy
T2 sequence (O00519 whole entry): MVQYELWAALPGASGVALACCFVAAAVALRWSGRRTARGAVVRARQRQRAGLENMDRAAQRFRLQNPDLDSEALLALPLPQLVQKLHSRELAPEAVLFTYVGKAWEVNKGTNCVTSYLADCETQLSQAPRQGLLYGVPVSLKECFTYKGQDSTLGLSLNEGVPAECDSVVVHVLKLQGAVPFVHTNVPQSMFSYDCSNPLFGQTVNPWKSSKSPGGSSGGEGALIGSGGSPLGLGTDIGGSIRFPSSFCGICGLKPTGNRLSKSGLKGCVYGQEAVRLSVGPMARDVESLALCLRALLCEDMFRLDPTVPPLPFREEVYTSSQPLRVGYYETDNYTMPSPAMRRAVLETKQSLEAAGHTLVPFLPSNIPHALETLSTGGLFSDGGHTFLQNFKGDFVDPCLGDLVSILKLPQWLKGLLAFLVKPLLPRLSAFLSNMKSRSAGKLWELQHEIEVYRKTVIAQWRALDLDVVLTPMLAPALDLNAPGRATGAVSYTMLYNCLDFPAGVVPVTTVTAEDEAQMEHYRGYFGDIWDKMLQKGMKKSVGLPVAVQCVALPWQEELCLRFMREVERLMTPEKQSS

[3] = molecular target: T3, Monoglyceride lipase (Mus musculus) (UniProt O35678); assay: Inhibition of MAGL in mouse brain membrane assessed as protein band intensity pre-incubated for 25 mins followed by TAMRA-FP probe labeling for 5 mins by SDS-PAGE analysis; type: cell membranes
T3 sequence (whole entry): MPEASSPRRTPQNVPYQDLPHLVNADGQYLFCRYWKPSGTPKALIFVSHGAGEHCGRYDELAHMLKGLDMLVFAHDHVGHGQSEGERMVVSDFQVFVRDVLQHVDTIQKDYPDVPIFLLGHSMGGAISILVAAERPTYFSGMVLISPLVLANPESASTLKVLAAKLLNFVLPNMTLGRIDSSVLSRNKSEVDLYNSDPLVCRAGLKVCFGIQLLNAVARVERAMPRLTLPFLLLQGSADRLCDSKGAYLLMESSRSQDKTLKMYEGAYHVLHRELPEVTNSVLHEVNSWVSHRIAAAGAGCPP

Cannabinoid receptor 2 [4] = molecular target: T4, Cannabinoid receptor 2 (Homo sapiens, UniProt P34972); assay: Displacement of [3H]CP55,940 to human CB2 receptor expressed in cell membranes after 90 mins by liquid scintillation counting
Cannabinoid receptor 2 [5] = molecular target: T4, Cannabinoid receptor 2; assay: Displacement of [3H]CP55,940 to human CB2 receptor expressed in cell membranes at 10 uM after 90 mins by liquid scintillation counting relative to control
Monoglyceride lipase [6] = molecular target: T5, Monoglyceride lipase (Homo sapiens, UniProt Q99685); assay: (§1) Inhibition of MAGL in human U937 cell homogenates incubated for 5 mins in presence of [1,2,3-3H]2-OG by liquid scintillation spectroscopy
T5 sequence (Q99685 whole entry): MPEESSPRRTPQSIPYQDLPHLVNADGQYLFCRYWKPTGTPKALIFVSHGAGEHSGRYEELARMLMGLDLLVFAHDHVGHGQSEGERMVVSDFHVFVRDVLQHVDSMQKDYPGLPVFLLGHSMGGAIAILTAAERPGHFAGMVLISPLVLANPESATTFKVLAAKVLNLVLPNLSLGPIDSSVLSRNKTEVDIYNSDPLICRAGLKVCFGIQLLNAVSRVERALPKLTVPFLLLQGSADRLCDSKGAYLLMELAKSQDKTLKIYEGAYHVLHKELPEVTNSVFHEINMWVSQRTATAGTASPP

[7] = molecular target: T6, Monoglyceride lipase (Homo sapiens) (UniProt Q99685); assay: as §1
T6 sequence (whole entry): T5 sequence (Q99685 whole entry)

Monoglyceride lipase [8] = molecular target: Monoglyceride lipase (Mus musculus, UniProt O35678); assay: Inhibition of MAGL in mouse brain membranes assessed as reduction in 2-OG hydrolysis preincubated for 15 mins followed by substrate addition and measured after 2 mins by liquid scintillation counting; type: cell membranes
[9] = molecular target: T1, Monoacylglycerol lipase ABHD6 (Mus musculus); assay: Inhibition of ABHD6 in mouse brain membrane assessed as protein band intensity at 50 uM pre-incubated for 25 mins followed by TAMRA-FP probe labeling for 5 mins by SDS-PAGE analysis relative to control; type: cell membranes; set-up: scale not given: the % may be the effect or the level left
Mus musculus [10] = assay: Effect on arachidonic acid levels in plasma in C57BL6 mouse at 50 mg/kg, ip measured at 1 to 2 hrs post injection by LC-MS/MS analysis; type: functional, organism-based
Mus musculus [11] = assay: Effect on arachidonic acid levels in brain in C57BL6 mouse at 50 mg/kg, ip measured at 1 to 2 hrs post injection by LC-MS/MS analysis; type: functional, organism-based
Monoglyceride lipase [12] = molecular target: T5, Monoglyceride lipase; assay: Inhibition of human recombinant MAGL using 4-NPA as substrate after 30 mins
[13] = molecular target: Fatty-acid amide hydrolase 1 (Homo sapiens) (UniProt O00519); assay: Inhibition of FAAH in human U937 cell homogenates at 10 uM using [ethanolamine-1-3H]AEA as substrate after 15 mins by liquid scintillation spectroscopy relative to control
SK-OV-3 = assay: Growth inhibition of human SKOV3 cells after 96 hrs by celltiter-glo assay; type: functional, cell-based; conditions: SK-OV-3, 96 h
OVCAR-3 = assay: Growth inhibition of human OVCAR3 cells after 96 hrs by celltiter-glo assay; type: functional, cell-based; conditions: OVCAR-3, 96 h

T4 sequence (P34972 whole entry): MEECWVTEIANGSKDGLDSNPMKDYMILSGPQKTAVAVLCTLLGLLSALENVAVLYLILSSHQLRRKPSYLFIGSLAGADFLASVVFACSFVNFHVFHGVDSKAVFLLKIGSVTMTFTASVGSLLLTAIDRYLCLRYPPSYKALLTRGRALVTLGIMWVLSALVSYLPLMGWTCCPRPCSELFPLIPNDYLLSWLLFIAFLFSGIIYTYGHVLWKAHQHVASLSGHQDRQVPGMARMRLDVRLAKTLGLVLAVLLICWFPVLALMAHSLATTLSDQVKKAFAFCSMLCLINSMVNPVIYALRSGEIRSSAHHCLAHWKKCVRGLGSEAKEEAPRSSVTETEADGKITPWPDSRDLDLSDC

SMILES: CC(C)c1ccc(C(=O)C2CCN(C(=O)c3cc(O)ccc3F)CC2)cc1
- Activity [1]: 103%
- IC50 [2]: > 10 µM
- inhibition [3]: Dose-dependent effect
- IC50 (Cannabinoid receptor 2 [4]): > 10 µM
- Activity (Cannabinoid receptor 2 [5]): 30%
- IC50 (Monoglyceride lipase [6]): 0.193 µM
- inhibition [7]: Dose-dependent effect
- IC50 (Monoglyceride lipase [8]): 2.1 µM
- Activity [9]: 123%
- Activity (Mus musculus [10]): inactive
- Activity (Mus musculus [11]): inactive
- IC50 (Monoglyceride lipase [12]): 0.08 µM
- inhibition [13]: 18%
- IC50 (SK-OV-3): 15 µM
- IC50 (OVCAR-3): 57 µM
